Assay: Phase I study: toxicity graded with NCI common toxicity criteria in patients
Format: in vivo, human
Source text: Fostriecin (CI-920) is a topoisomerase (topo) II catalytic activity inhibitor (Boritzki et al, 1988) (Figure 1). This novel class of topo II-targeting drugs is considered of potential value for treatment of patients with tumours resistant to classic topo II poisons, including anthracyclines and podophyllotoxins (Cummings and Smyth, 1993). The nuclear enzyme topo II is essential for the regulation of DNA conformation (reviewed in Osheroff et al, 1991). Central in its action is the formation of a complex with DNA. Stabilization of this complex by topo II poisons induces DNA damage and cell death (Froelich-Ammon and Osheroff, 1995). Decreased complex formation due to decreased topo II levels is considered to be an important mechanism of tumour-resistance to topo II poisons (Beck and Danks, 1991). The topo II catalytic inhibitor fostriecin is expected to have increased activity against tumour cells with low topo II levels and this was confirmed in in vitro studies (De Jong et al, 1991). […] Because of increased toxi- city of fostriecin in dogs compared to mice, a dose below one-third of the one-tenth mouse equivalent LD10, 2 mg m-2 day-1, was chosen as starting dose in humans (Clinical Brochure Fostriecin, 1991). […] We also performed an analysis of the human pharmacokinetics of fostriecin and ex vivo experiments to investigate if the plasma drug concentrations achieved were sufficient to inhibit a tenipo- side-resistant tumour cell line. The maximum tolerated dose (MTD) of fostriecin could not be established because drug supply was stopped prematurely. However, results of this study may provide a basis for continued clinical development of this agent. PATIENTS AND METHODS Patient selection, drug administration and evaluation Patient eligibility criteria were: histologically confirmed diagnosis of a solid tumour, no longer amenable to established forms of treatment; age 18-75 years; Eastern Cooperative Oncology Group (ECOG) performance status 2; life expectancy 12 weeks; no Phase I and pharmacokinetic study of the topoisomerase II catalytic inhibitor fostriecin RS de Jong1, NH Mulder1, DRA Uges2, DTh Sleijfer1, FJP Hoppener4, HJM Groen3, PHB Willemse1, WTA van der Graaf1 and EGE de Vries1 Departments of 1Medical Oncology, 2Pharmacy and Toxicology, and 3Pulmonary Diseases, University Hospital Groningen, The Netherlands; 4EORTC New Drug Development Office, Amsterdam, The Netherlands Summary We conducted a phase I and pharmacokinetic study of the topoisomerase II catalytic inhibitor fostriecin. Fostriecin was administered intravenously over 60 min on days 1-5 at 4-week intervals. Dose was escalated from 2 mg m-2 day-1 to 20 mg m-2 day-1 in 20 patients. Drug pharmacokinetics was analysed with high performance liquid chromatography with UV-detection. Plasma collected during drug administration was tested in vitro for growth inhibition of a teniposide-resistant small-cell lung cancer (SCLC) cell line. The predominant toxicities were elevated liver transaminases (maximum common toxicity criteria (CTC) grade 4) and serum creatinine (maximum CTC grade 2). […] Duration of elevated alanine-amino transferase (ALT) was dose-limiting in one patient at 20 mg m-2. Other frequent toxicities were grade 1-2 nausea/vomiting, fever and mild fatigue. […] A metabolite, most probably dephosphorylated fostriecin, was detected in plasma and urine. […] However, further escalation seems possible and is warranted to achieve potentially effective drug levels. Fostriecin has a short plasma half-life and longer duration of infusion should be considered. […]

[1] = 4 mg m-2, 5 patients/11 courses
[2] = 6.6 mg m-2, 3 patients/4 courses
[3] = 10 mg m-2, 3 patients/7 courses

C[C@@](O)(/C=C/[C@H]1CC=CC(=O)O1)[C@@H](C[C@@H](O)\C=C/C=C\C=C\CO)OP(=O)(O)O [fostriecin]
CTC-grade 1 ALP: courses causing toxicity, all full-dose courses (2 mg m-2, 4 patients/8 courses): 2 | CTC-grade 1 ALP: patients developing toxicity in first course (2 mg m-2, 4 patients/8 courses): 1 | CTC-grade 1 ALT: courses causing toxicity, all full-dose courses (2 mg m-2, 4 patients/8 courses): 6 | CTC-grade 1 ALT: patients developing toxicity in first course (2 mg m-2, 4 patients/8 courses): 2 | CTC-grade 1 AST: courses causing toxicity, all full-dose courses (2 mg m-2, 4 patients/8 courses): 2 | CTC-grade 1 AST: patients developing toxicity in first course (2 mg m-2, 4 patients/8 courses): 2 | CTC-grade 1 GGT: courses causing toxicity, all full-dose courses (2 mg m-2, 4 patients/8 courses): 2 | CTC-grade 1 GGT: patients developing toxicity in first course (2 mg m-2, 4 patients/8 courses): 0 | CTC-grade 1 creatinine: courses causing toxicity, all full-dose courses (2 mg m-2, 4 patients/8 courses): 4 | CTC-grade 1 creatinine: patients developing toxicity in first course (2 mg m-2, 4 patients/8 courses): 2 | CTC-grade 2 ALT: courses causing toxicity, all full-dose courses (2 mg m-2, 4 patients/8 courses): 1 | CTC-grade 2 ALT: patients developing toxicity in first course (2 mg m-2, 4 patients/8 courses): 1 | CTC-grade 2 GGT: courses causing toxicity, all full-dose courses (2 mg m-2, 4 patients/8 courses): 2 | CTC-grade 2 GGT: patients developing toxicity in first course (2 mg m-2, 4 patients/8 courses): 1 | CTC-grade 1 ALP: courses causing toxicity, all full-dose courses [1]: 3 | CTC-grade 1 ALP: patients developing toxicity in first course [1]: 3 | CTC-grade 1 ALT: courses causing toxicity, all full-dose courses [1]: 8 | CTC-grade 1 ALT: patients developing toxicity in first course [1]: 4 | CTC-grade 1 AST: courses causing toxicity, all full-dose courses [1]: 7 | CTC-grade 1 AST: patients developing toxicity in first course [1]: 3 | CTC-grade 1 GGT: courses causing toxicity, all full-dose courses [1]: 1 | CTC-grade 1 GGT: patients developing toxicity in first course [1]: 1 | CTC-grade 1 creatinine: courses causing toxicity, all full-dose courses [1]: 7 | CTC-grade 1 creatinine: patients developing toxicity in first course [1]: 3 | CTC-grade 2 ALP: courses causing toxicity, all full-dose courses [1]: 1 | CTC-grade 2 ALP: patients developing toxicity in first course [1]: 0 | CTC-grade 2 ALT: courses causing toxicity, all full-dose courses [1]: 1 | CTC-grade 2 ALT: patients developing toxicity in first course [1]: 0 | CTC-grade 2 AST: courses causing toxicity, all full-dose courses [1]: 1 | CTC-grade 2 AST: patients developing toxicity in first course [1]: 1 | CTC-grade 2 GGT: courses causing toxicity, all full-dose courses [1]: 0 | CTC-grade 2 GGT: patients developing toxicity in first course [1]: 0 | CTC-grade 3 ALT: courses causing toxicity, all full-dose courses [1]: 2 | CTC-grade 3 ALT: patients developing toxicity in first course [1]: 1 | CTC-grade 3 AST: courses causing toxicity, all full-dose courses [1]: 1 | CTC-grade 3 AST: patients developing toxicity in first course [1]: 0 | CTC-grade 3 GGT: courses causing toxicity, all full-dose courses [1]: 4 | CTC-grade 3 GGT: patients developing toxicity in first course [1]: 1 | CTC-grade 1 ALP: courses causing toxicity, all full-dose courses [2]: 3 | CTC-grade 1 ALP: patients developing toxicity in first course [2]: 0 | CTC-grade 1 ALT: courses causing toxicity, all full-dose courses [2]: 2 | CTC-grade 1 ALT: patients developing toxicity in first course [2]: 2 | CTC-grade 1 AST: courses causing toxicity, all full-dose courses [2]: 0 | CTC-grade 1 AST: patients developing toxicity in first course [2]: 0 | CTC-grade 1 GGT: courses causing toxicity, all full-dose courses [2]: 0 | CTC-grade 1 GGT: patients developing toxicity in first course [2]: 0 | CTC-grade 1 creatinine: courses causing toxicity, all full-dose courses [2]: 1 | CTC-grade 1 creatinine: patients developing toxicity in first course [2]: 1 | CTC-grade 2 ALP: courses causing toxicity, all full-dose courses [2]: 1 | CTC-grade 2 ALP: patients developing toxicity in first course [2]: 0 | CTC-grade 2 ALT: courses causing toxicity, all full-dose courses [2]: 1 | CTC-grade 2 ALT: patients developing toxicity in first course [2]: 1 | CTC-grade 2 AST: courses causing toxicity, all full-dose courses [2]: 1 | CTC-grade 2 AST: patients developing toxicity in first course [2]: 1 | CTC-grade 2 GGT: courses causing toxicity, all full-dose courses [2]: 0 | CTC-grade 2 GGT: patients developing toxicity in first course [2]: 0 | CTC-grade 2 bilirubin: courses causing toxicity, all full-dose courses [2]: 1 | CTC-grade 2 bilirubin: patients developing toxicity in first course [2]: 1 | CTC-grade 3 ALT: courses causing toxicity, all full-dose courses [2]: 1 | CTC-grade 3 ALT: patients developing toxicity in first course [2]: 0 | CTC-grade 3 AST: courses causing toxicity, all full-dose courses [2]: 2 | CTC-grade 3 AST: patients developing toxicity in first course [2]: 1 | CTC-grade 3 GGT: courses causing toxicity, all full-dose courses [2]: 1 | CTC-grade 3 GGT: patients developing toxicity in first course [2]: 1 | CTC-grade 1 ALP: courses causing toxicity, all full-dose courses [3]: 1 | CTC-grade 1 ALP: patients developing toxicity in first course [3]: 1 | CTC-grade 1 ALT: courses causing toxicity, all full-dose courses [3]: 0 | CTC-grade 1 ALT: patients developing toxicity in first course [3]: 0 | CTC-grade 1 AST: courses causing toxicity, all full-dose courses [3]: 3 | CTC-grade 1 AST: patients developing toxicity in first course [3]: 0 | CTC-grade 1 GGT: courses causing toxicity, all full-dose courses [3]: 6 | CTC-grade 1 GGT: patients developing toxicity in first course [3]: 2 | CTC-grade 1 creatinine: courses causing toxicity, all full-dose courses [3]: 3 | CTC-grade 1 creatinine: patients developing toxicity in first course [3]: 2 | CTC-grade 2 ALT: courses causing toxicity, all full-dose courses [3]: 3 | CTC-grade 2 ALT: patients developing toxicity in first course [3]: 0 | CTC-grade 2 AST: courses causing toxicity, all full-dose courses [3]: 1 | CTC-grade 2 AST: patients developing toxicity in first course [3]: 1 | CTC-grade 2 GGT: courses causing toxicity, all full-dose courses [3]: 0 | CTC-grade 2 GGT: patients developing toxicity in first course [3]: 0 | CTC-grade 2 creatinine: courses causing toxicity, all full-dose courses [3]: 4 | CTC-grade 2 creatinine: patients developing toxicity in first course [3]: 1 | CTC-grade 3 ALT: courses causing toxicity, all full-dose courses [3]: 2 | CTC-grade 3 ALT: patients developing toxicity in first course [3]: 2 | CTC-grade 3 GGT: courses causing toxicity, all full-dose courses [3]: 1 | CTC-grade 3 GGT: patients developing toxicity in first course [3]: 1

Source: publication PMC2362650, “Phase I and pharmacokinetic study of the topoisomerase II catalytic inhibitor fostriecin” (British Journal of Cancer, 1999)
